According to patent EP0470323A2, “New salts of the nicotinic acid with aminobenzylic compounds and their pharmaceutical use” (BROMLEY LIMITED, priority 1990, dated 1992):

How the values were obtained:
[1] = system: Thyphirium salmonella strains (TA 98, TA 100, TA 1535, and TA 1538); format: cell-based
Text: The compound according to the Example 1 has been tested, in order to check and see its mutagenic effects.

[2] = system: five strains of Typhumurium Salmonella; experiment: Mutagenic action of urines of intragastrically treated rats on Salmonella; format: cell-based; conditions: urines of rats treated intragastrically with two doses, with metabolic activation, beta-glucoronidase absent
HeLa cells (DnA-repair) = experiment: Mutagenic action of urines of intragastrically treated rats on HeLa cells (DNA repair); format: cell-based, human; conditions: urines of rats treated intragastrically with two doses, with metabolic activation, beta-glucoronidase absent
[3] = system: Hypercholesterolaemia caused by Trit WR1339 in the mouses; experiment: Hypercholesterolaemia of the mouse caused by Triton WR 1339; format: in vivo; conditions: for Tot.Cholesterol M ± E.S. / Tot.Lipids M ± E.S.: 20 hours after Triton WR 1339 i.p.; for Tot.Cholesterol % vs contr. / Tot.Lipids % vs contr.: reduction
Experimental: The method described by Garattini S. (Arzneim,Forsch 9, 206; 1959) with some modifications has been followed.
The mouses used have been males of 22 to 28 grams body weight, on an empty stomach but with water "ad libitum" since 12 hours. The hyperlipidaemia was induced by means of an intraperitoneum administration of […] of Triton WR 1339, with dosage 300 mg/kg in a physiological solution. The subject products were administered at the same time in clear plain water, always in a volume of […] by means of a gastric probe. The animals were sacrified after 20 hours, by cutting them the carotids. The blood was collected in some plastic test-tubes, and was centrifuged at 3500 rpm for ten minutes. Thereafter the total cholesterol (Sornay R and colleagues, Arzeneim Forsch, 26,885 1976) and the total lipids (Chonhelmer R and colleagues, Biological Chemistry 106, 745, 1934) were determined.

[4] = system: aggregation of the platelets caused by the collagene; experiment: Anti-aggregating ex vivo activity against collagen in the rat; conditions: for Latency time (sec.) / Transmittance percentage (maximum aggregation): PRP 2 hours after last treatment, collagene 4 mcg/ml
Experimental: Six groups of 15 male rats of 200 - 250 g have been used.
The blood taken from the three rats of each group has been mixed and centrifuged during 6 minutes at 1400 rpm, at room temperature. After having taken the plasma full of platelets (PRP) the thereunder floating material has been centrifuged again (4000 rpm during 10 minutes) in order to have the plasma with few platelets (PPP) separated from the balance. The PRP has been diluted with a part of PPP in order to bring the number of platelets to 350 ± 50 x 10³/mm³. The aggregation has been evaluated in accordance with the method of Minsker D.H. and coll. (J. Pharmacol.Exp.Ther. 210 37 1979) by using an ELVI 840 two-channels aggregometer and an Omniscribe recorder B.500. A quantity of 0,25 ml PRP has been used, transferred into the aggregometer for two minutes at 37°C and stirred at 1000 rpm. The light intensity was arranged in such a way, to obtain 0% transmittance with the PRP and 100% with the PPP. After 2′ incubation, by means of microsyringe the collagene was added to the PRP in a volume quantity of 5 mcl with the final concentration of 4 mcg/ml.
From the aggregation trace of the recorder the following data have been evaluated: • a) latent time of the aggregation (seconds between the introductions of collagene and the starting of the aggregation) • b) transmittance increase percentage (maximum aggregation). The same proceeding was repeated for all animals, always by mixing the blood of three rats belonging to the same group and by obtaining in this manner five aggregation curves per group.

red cells in the rat = experiment: Red cell adhesivity / filtration, Teitel method; format: in vivo; conditions: listed as Compound as Ex. 1
Text: steresis (Teiltel P.: Nouv. Rev. Franç. Hématol. 7, 195, 1967). Any alteration, almost undoubtely at the level of the red cell's membrane, cause some damaging variations of the red cell's elasticity thus making more difficult the passing through the capillary vessels having more reduced diameter, and therefore increasing the flow resistance in the peripheral vessels systems. In order to determine the effect caused by the compound according to the Example 1, on these features of the red cell, the method described by Schmidt, Schonbein and colleagues (Blut 26, 369, 1973) has been used.
In the circulatory flow, the above mentioned capillary vessels being excluded, the blood cells do normally circulate being attached between each other because of their adhesiveness. In order to study this adhesion force, the above mentioned Teitel method has been used. Male rats of 150 g body weight approximately have been employed, and they have been treated for three consecutive days with 0,5 mM/kg/os of the compound according to the Example 1, or otherwise Buflomedil, or even Pentosiphillin used as comparison substance. After the last treatment the animals, without eating from 18 hours, have been killed in a light ethereal anaesthesy and the blood was collected over an 0,2 molar EDTA (9 and 1 volumes respectively). The red cells filtering possibility, measured with the Teitel method, wherein the quantity of red cells passing, in high haematocritical conditions, through a paper filter with holes of 20-40 µm in a previously determined time, has been ascertained as follows: the blood was centrifuged for ten minutes at 2000 rpm in order to obtain the massing of the red cells, two ml of the blood collected as above were put into an upside down turned cone made with filtering paper, being previously wetted with a physiological solution. The volume passing through the filter in 2 - 4 - 8 and 16 minutes is then measured. The average filtration time T 1/2 is reckoned on semi-logarithmic paper by putting on the abscissae the logarithm of the time, and on the ordinates the percentage of blood filtered. In order to follow the Schmidt Schönbein method, the here after described proceeding has been performed: 0,2 ml of a suspension of red cells at 2% obtained by diluting the blood with the autological plasma, then it was placed into an appropriate device permitting to filter this blood through a filter (millipores) of 5 µm mashes at a filtration pressure of 50 mm water. With a chronometer one determines the time required for the passage of the whole sample through the filter.
At time same time, one measures, in the same conditions, the same parameter for a plasma sample. One calculates then the relative filtration time by dividing the time required to filter the diluted blood sample by the time being necessary to filter the plasma sample. For each group the average and the standard error of the individual data obtained was reckoned. The statistical evaluation was obtained by means of the Dunnett test.

[5] = rat, 1,00 mM/kg os for 4 days, listed as Compound according to the Example N° 1

## COc1cc(OC)c(C(=O)CCCN2CCCC2)c(OC)c1 [Example 1, 4-(1 pyrrholydinyl)-1-(2,4,6 trimethoxypheniyl)-1-nicotinized butanone]
[1]
  mutagenic activity: did not show any mutagenic activity
[2]
  mutagenic action: any mutagenic action did not result
HeLa cells (DnA-repair)
  mutagenic action: any mutagenic action did not result
[3]; dosage of 2 mM/kg weight
  reduction in both parameters (total cholesterol and total lipids): 43%
[3]; dosage of 5 mM/kg weight
  reduction in both parameters (total cholesterol and total lipids): ~60%
[3]; dose 1 mM/kg per os
  Tot.Cholesterol M ± E.S.: 221 ± 18 mg/100 ml
  Tot.Lipids M ± E.S.: 1721 ± 164 mg/100 ml
  Tot.Cholesterol % vs contr.: 38,3%
  Tot.Lipids % vs contr.: 29,3%
[3]; dose 2 mM/kg per os
  Tot.Cholesterol M ± E.S.: 191 ± 15 mg/100 ml
  Tot.Lipids M ± E.S.: 1315 ± 115 mg/100 ml
  Tot.Cholesterol % vs contr.: 46,6%
  Tot.Lipids % vs contr.: 46,0%
[3]; dose 4 mM/kg per os
  Tot.Cholesterol M ± E.S.: 133 ± 12 mg/100 ml
  Tot.Lipids M ± E.S.: 1008 ± 117 mg/100 ml
  Tot.Cholesterol % vs contr.: 62,8%
  Tot.Lipids % vs contr.: 58,6%
[4]; rat, 0,25 mM/kg os for 4 days
  Latency time, % variation vs controls: +15,7%
  Transmittance percentage, % variation vs controls: -14,4%
  Latency time (sec.): 43,4 ± 4,2 sec.
  Transmittance percentage (maximum aggregation): 67,3 ± 4,4%
[4]; rat, 0,50 mM/kg os for 4 days
  Latency time, % variation vs controls: +38,7%
  Transmittance percentage, % variation vs controls: -34,3%
  Latency time (sec.): 52,0 ± 3,5 sec.
  Transmittance percentage (maximum aggregation): 51,6 ± 4,0%
[4]; [5]
  Latency time (sec.): 64,5 ± 5,4 sec.
  Transmittance percentage (maximum aggregation): 30,2 ± 3,6%
  Latency time, % variation vs controls: +72,0%
  Transmittance percentage, % variation vs controls: -61,6%
Red cells in the rat; dose 3 x 0,5 mM/kg/os (three consecutive days)
  Teitel method T1/2 min. M ± E.S.: 2,26 ± 0,21 min.
Red cells in the rat; dose 3 x 0,5 mM/kg/os
  Teitel method Δ % vs contr.: 37,9%
